Among the data in PubChem BioAssay AID1963963 (Molecular Pharmacology Branch, DTP, NCI, 2024) are IC50 and viability, T/C values, retold here.

The subject of this assay is 958667-338-R-J2-PDC tumor spheroids viability. The assay can be described thus: Anticancer human tumor 958667-338-R-J2-PDC patient-derived colon adenocarcinoma cell line growth inhibition [PI3K]. The following applies: spheroids with HUVEC and MSC; for pIC50: curve of first compound; for viability, T/C: stronger effect = lower value. An excerpt: Combinatorial screen of targeted agents with the PI3K inhibitors inavolisib, alpelisib, duvelisib, and copanlisib in multi-cell type tumor spheroids
A high-throughput screen of multi-cell type tumor spheroids was designed to identify active combinations of targeted small molecules and PI3K pathway inhibitors. Complex spheroids include a stromal component modeled by human endothelial cells (HUVEC) and fibroblasts modeled by human mesenchymal stem cells (MSCs). The concentration ranges selected for each drug and investigational agent were based upon clinically achievable concentrations if the clinical Cmax of the agent was known.
Compounds. The drugs and investigational agents: inavolisib (NSC800729), alpelisib (NSC765974), duvelisib (NSC772469), copanlisib (NSC816437), ipatasertib (NSC767898), afuresertib (NSC778305), talazoparib (NSC767125), sapanisertib (NSC764658), selumetinib (NSC741078), tovorafenib (DAY101, NSC766906), vemurafenib (NSC761431), ravoxertinib (NSC781343), sotorasib (NSC818433), MRTX1133 (NSC 836407), abemaciclib (NSC 768073), palbociclib (NSC758247), venetoclax (NSC 766270), SY5609 (NSC837396), enzalutamide (NSC755605), and darolutamide (NSC825331), were obtained from the National Cancer Institute (NCI) Developmental Therapeutics Program Chemical Repository. The FDA-approved anticancer drug set is available from the NCI Developmental Therapeutics Program. […] The stock solutions were prepared in dimethyl sulfoxide (DMSO, Sigma-Aldrich, St. Louis, MO, cat. D2650) at 800-fold the tested concentration and stored at -70 degrees C prior to their use. All drugs and investigational agents were tested over a range starting from a high concentration at or near the clinical Cmax and decreasing in half-log increments. If the clinical Cmax for an agent had not been determined, the highest concentration tested was 10 microM.
Cell Culture. All cells were maintained in an incubator at 37 degrees C and 5% CO2 with 95% humidity. The PDC lines were cultured according to standard operating procedures established by the NCI PDMR (https://pdmr.cancer.gov/sops/default.htm). All PDCs were thawed and cultured in Matrigel-coated flasks prepared with a working solution of 1X Ham's F-12 nutrient mix, without supplementation (Invitrogen, Waltham, MA, cat. 11765054), 100 U/mL penicillin-streptomycin (Invitrogen, cat. 15140122), and 2.5% Matrigel (Corning Inc., Corning, NY, cat. 354248) for the first three passages. The 354836-022-R-J1-PDC, 475296-252-R-J1-PDC, and 997726-040-R-J2-PDC lines were cultured in 6A media, which includes advanced DMEM/F-12 (Thermo Fisher Scientific, cat. 12634028), 10 mM HEPES (Thermo Fisher Scientific, cat. 15630080), 1X GlutaMAX supplement (Thermo Fisher Scientific, cat. 35050061), 0.1 mg/mL primocin (InvivoGen, San Diego, CA, cat. ant-pm-2), 10% defined fetal bovine serum, heat inactivated (HyClone Laboratories Inc., Logan, UT, cat. SH30070.03HI), 50% L-WRN conditioned media (ATCC, cat. CRL-3276), 1.25 mM N-Acetyl-L-cysteine (Sigma-Aldrich, cat. A9165), 10 mM nicotinamide (Sigma-Aldrich, cat. N0636), 1X B-27 supplement (Thermo Fisher Scientific, cat. 17504044), 1X N-2 supplement (Thermo Fisher Scientific, cat. 17502048), and 10 microM Y-27632 dihydrochloride (Tocris Bioscience, Bristol, United Kingdom, cat. 1254). The 624824-186-R-J2-PDC line was cultured in 6C/Colon 1B media, which includes all 6A media components plus 50 ng/mL human EGF recombinant protein (Thermo Fisher Scientific, cat. PHG0311). […]

Structures are written as SMILES. pIC50: −log10 of the molar value.
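Note: spheroids exposed to compounds for seven days before readout.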

As to `CCCS(=O)(=O)Nc1ccc(F)c(C(=O)c2c[nH]c3ncc(-c4ccc(Cl)cc4)cc23)c1F` + CC(Nc1ccc2c(c1)OCCn1cc(N3C(=O)OCC3C(F)F)nc1-2)C(N)=O, the negative logarithm of the IC50 (pIC50) reads like this: (second compound 0.00316 µM) 5.21; (second compound 0.01 µM) 5.22; (second compound 0.0316 µM) 5.30; (second compound 0.1 µM) 5.32; (second compound 0.316 µM) 5.32; (second compound 1 µM) 5.39. In addition, the viability, T/C was 99% (second compound 0.00316 µM, first compound 0.0316 µM); 105% (second compound 0.00316 µM, first compound 0.1 µM); 106% (second compound 0.00316 µM, first compound 0.316 µM); 106% (second compound 0.00316 µM, first compound 1 µM); 112% (second compound 0.00316 µM, first compound 3.16 µM); 8.08% (second compound 0.00316 µM, first compound 10 µM). Moreover, the viability, T/C was 105% (second compound 0.01 µM, first compound 0.0316 µM); 111% (second compound 0.01 µM, first compound 0.1 µM); 83.7% (second compound 0.01 µM, first compound 0.316 µM); 99.9% (second compound 0.01 µM, first compound 1 µM); 130% (second compound 0.01 µM, first compound 3.16 µM); 5.91% (second compound 0.01 µM, first compound 10 µM). Further, the viability, T/C runs as follows: (second compound 0.0316 µM, first compound 0.0316 µM) 104%; (second compound 0.0316 µM, first compound 0.1 µM) 109%; (second compound 0.0316 µM, first compound 0.316 µM) 104%; (second compound 0.0316 µM, first compound 1 µM) 106%; (second compound 0.0316 µM, first compound 3.16 µM) 76.7%; (second compound 0.0316 µM, first compound 10 µM) 9.56%. Moreover, the viability, T/C by setting is: (second compound 0.1 µM, first compound 0.0316 µM) 78.3%; (second compound 0.1 µM, first compound 0.1 µM) 74.9%; (second compound 0.1 µM, first compound 0.316 µM) 72.3%; (second compound 0.1 µM, first compound 1 µM) 67.5%; (second compound 0.1 µM, first compound 3.16 µM) 81.1%; (second compound 0.1 µM, first compound 10 µM) 5.14%. The viability, T/C by setting is: (second compound 0.316 µM, first compound 0.0316 µM) 72.5%; (second compound 0.316 µM, first compound 0.1 µM) 65.5%; (second compound 0.316 µM, first compound 0.316 µM) 61.5%; (second compound 0.316 µM, first compound 1 µM) 79.1%; (second compound 0.316 µM, first compound 3.16 µM) 79.7%; (second compound 0.316 µM, first compound 10 µM) 12.3%. Also, the viability, T/C is 57.8% (second compound 1 µM, first compound 0.0316 µM); 61% (second compound 1 µM, first compound 0.1 µM); 58% (second compound 1 µM, first compound 0.316 µM); 68.9% (second compound 1 µM, first compound 1 µM); 60.5% (second compound 1 µM, first compound 3.16 µM); 10.8% (second compound 1 µM, first compound 10 µM).
Turning to `CC1(C)CCC(Nc2ncc(C(F)(F)F)c(-c3c[nH]c4c(P(C)(C)=O)c(C#N)ccc34)n2)CN1` (configuration not stated), the viability, T/C is, setting by setting: (compound 0.0316 µM) 97.9% [middle of 4 runs]; (compound 1 µM) 66.5% [middle of 4 runs]; (compound 3.16 µM) 64.5% [middle of 4 runs]; (compound 10 µM) 36.4% [middle of 4 runs]. In addition, the 50% inhibitory concentration (IC50) (curve of compound) was 5.09 µM [middle of 4 runs].
